Measured values: publication PMC6980506, “Comparative pharmacokinetics and pharmacodynamics of the advanced Retinol-Binding Protein 4 antagonist in dog and cynomolgus monkey” (PLoS ONE, 2020)

Columns and labels:
[1] = Metabolic stability in human liver microsomes; format: in vitro ADME; details: both sexes, pH 7.4, 1 mg/mL, read-out: Microsomal Stability (% Remaining at 30 min)
Method: All measurements were done in duplicate. Pooled mixed gender human donor microsomes, male beagle dog microsomes and male cynomolgus monkey were obtained from BioIVT (Baltimore, MD). […] A mixture containing 50 mM potassium phosphate buffer pH 7.4 and 1 mg/mL liver microsomes was pre-warmed for 10 min at 37°C in a shaking water bath, followed by the addition of test compound. Final DMSO concentration in the reaction mix was 0.1%. […] The final volume of the reaction mixture was 800 μL, containing 1 mg/mL liver microsomes, and 1 μM test compound. Aliquots (100 μL) of reaction mixtures were removed from the incubation plate at pre-defined timepoints and mixed with 150 μL of ice-cold acetonitrile, incubated on ice for 15 min, and samples were centrifuged (3,600 rpm, 10 min, 4°C) to precipitate protein. The supernatants were diluted 1:1 (v/v) with water containing the internal standard and subjected to the LC/MS analysis.

[2] = Plasma protein binding by equilibrium dialysis, dog plasma; format: in vitro ADME; details: pH 7.4, average and standard deviation, read-out: %PPB, plasma protein binding (converted)
Method: In vitro ADME tests were conducted at AMRI, Albany, NY.

[3] = Metabolic clearance in human hepatocytes; format: in vitro ADME; details: cryopreserved hepatocytes, read-out: Hepatocyte CLint (intrinsic clearance)
Method: (§1) All measurements were done in duplicate. Testosterone and 7-hydroxycoumarin were used as positive controls. Pooled cryopreserved human hepatocytes, cryopreserved male beagle dog hepatocytes, and cryopreserved male cynomolgus monkey hepatocytes were obtained from BioIVT (Baltimore, MD). Compound at 1 μM was incubated with 1 x 10^6 cells. Final DMSO concentration in the reaction mix was 0.1%. Aliquots (100 μL) of reaction mixtures were removed from the incubation plate at different timepoints and mixed with 150 μL of ice-cold acetonitrile. After incubation on ice for 15 min, the samples were centrifuged (3,600 rpm, 10 min, 4°C) to precipitate protein. The supernatants were diluted 1:1 (v/v) with water containing internal standards and subjected to the LC/MS analysis. Hepatic clearance was calculated using the well-stirred liver model

[4] = Metabolic clearance in dog hepatocytes; format: in vitro ADME; details: male, beagle, cryopreserved hepatocytes, read-out: Hepatocyte CLint (intrinsic clearance)
Method: as §1

[5] = Metabolic clearance in cynomolgus monkey hepatocytes; format: in vitro ADME; details: male, cryopreserved hepatocytes, Cyno hepatocytes, read-out: Hepatocyte CLint (intrinsic clearance)
Method: as §1

plasma RBP4 = assay: Plasma RBP4 lowering (ELISA) in beagle dog; format: in vivo
Method: Pharmacokinetic studies were conducted in male beagle dogs and male cynomolgus monkeys at SRI International, Menlo Park, CA. General procedures for animal care and housing were in accordance with the National Research Council (NRC) Guide for the Care and Use of Laboratory Animals (1996) and the Animal Welfare Standards incorporated in 9 CFR Part 3, 1991 and complied with guidelines set forth by the ARVO Animal Statement for the Use of Animals in Ophthalmic and Vision Research. During the course of the PK experiments, cynomolgus monkeys were individually housed in stainless steel primary enclosures in an AAALAC-accredited facility. Animals were fed a commercial monkey chow, and supplemental food was provided (fresh fruits, vegetables, seeds, and nuts). Reverse osmosis-purified drinking water was available at all times. Cynomolgus monkeys were maintained on a 12:12 hour light:dark cycle at the 64–84°F temperature and 30–70% humidity. Monkeys had access to enrichment opportunities (grooming devices, foraging devices, activity panels and mirrors) and were provided auditory stimuli and human interaction enrichment throughout the study. Blood samples were collected by venipuncture of a peripheral vein. Animals were acclimated to the squeeze back mechanism in their home cage by repeated, short periods of restraint during general husbandry procedures for at least 2 weeks prior to dosing. Animal were not removed from their cages for collection, and no anesthesia/analgesic agents were used for blood collection. […] For PK experiments, beagle dogs were individually housed in enclosed run (≥ 4 ft x 6 ft). Dogs were exposed to their daily ration of food, Harlan Teklad 2025C Certified Global 25% Protein Dog Diet. Water was provided from the public water supply (municipal tap water) ad libitum. Dogs were maintained on a 12:12 hour light:dark cycle at the 72–73°F temperature and 40–71% humidity. Every effort was made to minimize, if not eliminate, pain and suffering in all animals in this study. No restraining devices were used in blood collecting procedures. Dogs were gentle hand-held to restrain by trained technicians with the dogs foreleg extended for sample collection of blood from cephalic vein. Animals were awake during blood sample collection with no anesthesia/analgesic agents used, and positive reinforcement by the technician was provided following collection. […] All dogs were released back to the colony after the study was completed. Male beagle dogs and male cynomolgus monkey received a single i.v. dose of a test compound at 0.5 mg kg^−1 (dog) and 1 mg kg^−1 (monkey) or a single p.o. dose of a test compound of at 2 mg kg^−1 (dog) and 5 mg kg^−1 (monkey). The number of animals that was used in PK experiments is 3 per study group. Intravenous administration vehicle was 3% DMA/45% PEG300/12% ethanol/40% sterile water; p.o. vehicle was 2% Tween 80 in 0.9% saline. Blood was collected from dogs and monkeys at pre-dose and at 5, 15 and 30 min, and 1, 2, 4, 6, 8, 12, 24, 36 and 48 h post-dose in the i.v. arms and at 15 and 30 min, and 1, 2, 4, 6, 8, 12, 24, 36 and 48 h post-dose in the p.o. arm. […] Following protein extraction with acetonitrile, compound concentrations in plasma were measured by LC-MS/MS. The plasma drug level data were analyzed using WinNonlin software package; Model 201 (for i.v. bolus administration);was used for the analysis of i.v. data, and Model 200 (for extravascular administration) was used for the analysis of the p.o. data. […]

[6] = design: method as in PMID 26181715; details: human liver microsomes; cited from earlier work
PXR = tested on: PXR; design: method as in PMID 26181715; details: cited from earlier work
hERG channel = tested on: hERG channel; design: method as in PMID 26181715; details: cited from earlier work
[7] = tested on: standard screening panel of fifty-five GPCRs, enzymes, ion channels, and transporters; design: method as in PMID 26181715; details: cited from earlier work

## Cc1cc(C(=O)O)nc(N2C[C@H]3C[C@@H](c4ccccc4C(F)(F)F)C[C@H]3C2)n1 [BPN-14136]
[1]
  remaining at 0.5 h, 1 μM: 94%
[2]
  fraction unbound at 4 h, 1 μM: 0.003
[3]
  hepatocyte CLint at 1 μM: < 0.7 µL/min/1e6 cells
[4]
  hepatocyte CLint at 1 μM: < 0.7 µL/min/1e6 cells
[5]
  hepatocyte CLint at 1 μM: 0.7 µL/min/1e6 cells
Plasma RBP4; single 0.5 mg kg^−1 i.v. dose
  plasma RBP4 lowering: 50%
Plasma RBP4; single 2 mg kg^−1 oral dose, 24 h
  reduction of RBP4: 53%
Plasma RBP4; single 2 mg kg^−1 oral dose, 36 h
  reduction of RBP4: 42%
Plasma RBP4; single 2 mg kg^−1 oral dose, 48 h
  reduction of RBP4: 39%
Plasma RBP4; single 2 mg kg^−1 oral dose, at 8 hours post-dosing
  maximal plasma RBP4 reduction: 60%
[6]
  stability in liver microsomes, % remaining at 30 min: > 90%
PXR
  PXR activation: no PXR activation
hERG channel
  off-target activity at the hERG channel: no significant off-target activity
[7]
  off-target activity within standard screening panel: no significant off-target activity
